Experimental data published in article PMC11597207, “Synthesis and Anti-Inflammatory and Analgesic Potentials of Ethyl 2-(2,5-Dioxo-1-Phenylpyrrolidin-3-yl)-2-Methylpropanoate” (Pharmaceuticals, 2024).

Columns and labels:
[1] = target: T1, COX-1 (Ovis aries, UniProt P05979); test: COX-1 inhibitory assay; format: biochemical, sheep
T1 construct: purchased Cayman Chemical Batch No.: A4570
T1 sequence (P05979 25-600): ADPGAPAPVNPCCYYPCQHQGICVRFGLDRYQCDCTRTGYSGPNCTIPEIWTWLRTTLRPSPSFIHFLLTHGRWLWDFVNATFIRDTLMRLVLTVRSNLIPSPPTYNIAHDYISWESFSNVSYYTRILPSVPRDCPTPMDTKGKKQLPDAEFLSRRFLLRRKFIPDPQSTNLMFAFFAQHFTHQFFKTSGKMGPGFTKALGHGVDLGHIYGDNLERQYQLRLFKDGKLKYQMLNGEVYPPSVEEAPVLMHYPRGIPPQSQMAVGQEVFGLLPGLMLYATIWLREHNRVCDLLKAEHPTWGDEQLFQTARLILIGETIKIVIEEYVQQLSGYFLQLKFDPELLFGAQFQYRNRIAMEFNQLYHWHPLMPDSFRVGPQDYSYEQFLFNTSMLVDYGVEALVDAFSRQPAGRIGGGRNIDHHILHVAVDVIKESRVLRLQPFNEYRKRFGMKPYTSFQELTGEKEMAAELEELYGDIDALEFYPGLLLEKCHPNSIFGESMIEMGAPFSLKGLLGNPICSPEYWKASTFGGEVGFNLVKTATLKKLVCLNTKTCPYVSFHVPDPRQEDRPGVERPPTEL
Description: The inhibitory potential of synthesized MAK01 was evaluated using a COX-1 inhibitory assay. This utilized a solution of COX-1 enzymes derived from sheep, adhering to previous protocols. The COX-1 enzyme solution was prepared with a specific concentration. The concentration was set at 0.7–0.8 μg per 10 μL. The activation of the enzymes was achieved by taking and mixing 10 μL and 50 μL of the […] enzyme solution and a co-factor solution, respectively. This mixture was then cooled at 4 °C in an ice bucket for a duration of five to six minutes. As for the preparation of the co-factor solution, it began with 0.1 M Tris buffer, which was maintained at a pH of 8.0. To this buffer, 1 mM of hematin was added. Next, 0.9 mM of glutathione was mixed into the solution. Further, the solution was enriched with 0.24 mM of TMPD. After the co-factor solution, specific test samples were prepared. These samples were of a certain concentration and diluted to 20 μL in volume. These test samples were then mixed with 60 μL of the […] enzyme solution. Once the mixture was prepared, it was left undisturbed at room temperature. The duration for this standing period ranged from five to ten minutes. Subsequent to this resting period, 20 μL of 30 mM arachidonic acid was added. This addition served to initiate the reaction within the solution. Post initiation of the reaction, the solution underwent an incubation period. The solution was kept at a temperature of 37 °C. The incubation was allowed to continue for a total of 15 min. The final solution underwent an absorbance measurement. This was performed using a UV–visible spectrophotometer. Specifically, the measurement was made at a 570 nm wavelength. Similarly, the test samples in various concentrations were processed and analyzed using the same procedure. Using the absorbance value over time, the inhibition of the COX-1 enzyme was quantified.
Using the following formulation, the percent inhibition for each sample was calculated. % Inhibition=Abs. test sample−Abs. background/Abs. solvent blank−Abs. background×100

[2] = target: T2, 5-LOX (Homo sapiens, UniProt P09917); test: 5-LOX inhibitory assay; format: biochemical
T2 construct: purchased Cayman Chemical Batch No.: A3457
T2 sequence (P09917 1-674): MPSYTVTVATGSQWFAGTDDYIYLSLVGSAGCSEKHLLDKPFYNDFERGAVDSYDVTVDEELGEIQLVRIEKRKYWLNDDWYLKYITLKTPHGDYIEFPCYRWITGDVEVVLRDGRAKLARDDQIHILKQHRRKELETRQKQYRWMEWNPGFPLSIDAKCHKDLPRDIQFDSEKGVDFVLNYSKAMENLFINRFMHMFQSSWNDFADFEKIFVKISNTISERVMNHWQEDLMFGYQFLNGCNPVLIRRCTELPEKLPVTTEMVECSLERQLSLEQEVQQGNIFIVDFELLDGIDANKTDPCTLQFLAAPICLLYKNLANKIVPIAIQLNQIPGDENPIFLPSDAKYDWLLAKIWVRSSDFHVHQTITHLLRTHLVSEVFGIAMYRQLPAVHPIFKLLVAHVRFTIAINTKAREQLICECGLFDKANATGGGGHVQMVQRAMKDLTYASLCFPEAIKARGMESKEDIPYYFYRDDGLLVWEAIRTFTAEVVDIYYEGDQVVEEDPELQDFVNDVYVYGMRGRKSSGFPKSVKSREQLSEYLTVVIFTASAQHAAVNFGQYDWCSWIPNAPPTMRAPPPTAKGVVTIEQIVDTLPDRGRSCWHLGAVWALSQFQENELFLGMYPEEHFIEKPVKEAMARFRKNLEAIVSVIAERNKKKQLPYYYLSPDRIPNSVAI
Description: The activity of MAK01 against the 5-LOX enzyme was investigated using a human recombinant form of 5-LOX [47]. To begin the 5-LOX activity assay, a 10,000 U/mL solution of 5-LOX was prepared in a phosphate buffer with a pH of 6.3. A range of concentrations of the test compounds in the same buffer were prepared for assay. As a substrate for 5-LOX, linoleic acid (80 mM) was diluted with ethyl alcohol and used in the assay. The experiment involved mixing the same amount of both the enzyme solution and the test sample, such as mixing 0.25 mL 5-LOX with 0.25 mL of the compound, both dissolved in buffer. The mixing was followed by incubation at 25 °C for 5 to 10 min. Subsequently, 0.10 mL of the linoleic acid solution was added and allowed to incubate for another 5 min. The absorbance was measured using a UV–visible spectrophotometer at a wavelength of 234 nm, and the percent inhibition was calculated based on the absorbance readings. The same procedure was repeated for different concentrations of the test samples. Zileuton, as a reference drug, was used in comparisons. Using the following formula, the percent inhibition for each sample was calculated: % Inhibition=Abs. of Control−Abs. of Sample/Abs. of Control×100

[3] = Solubility observation of the isolated compound; format: physicochemical

Q: Which results are given for `CCOC(=O)C(C)(C)C1CC(=O)N(c2ccccc2)C1=O` (centres unmarked) [MAK01, ethyl 2-(2,5-dioxo-1-phenylpyrrolidin-3-yl)-2-methylpropanoate]?
A: IC50 [1]: 1.09 mM; COX-1 percent inhibition ([1]; 62.50 μg/mL): 32%; inhibition at 62.5 µg/mL ([1]; 62.50 μg/mL, read-out: COX-1 percent inhibition): 31.5%; COX-1 percent inhibition ([1]; 125 μg/mL): 38%; inhibition at 125 µg/mL ([1]; 125 μg/mL, read-out: COX-1 percent inhibition): 37.5%; COX-1 percent inhibition ([1]; 250 μg/mL): 46%; inhibition at 250 µg/mL ([1]; 250 μg/mL, read-out: COX-1 percent inhibition): 45.8%; COX-1 percent inhibition ([1]; 500 μg/mL): 56%; inhibition at 500 µg/mL ([1]; 500 μg/mL, read-out: COX-1 percent inhibition): 56.5%; COX-1 percent inhibition ([1]; 1000 μg/mL): 65%; inhibition at 1000 µg/mL ([1]; 1000 μg/mL, read-out: COX-1 percent inhibition): 64.8%; IC50 [2]: 363 µM; 5-LOX percent inhibition ([2]; 62.50 μg/mL): 45%; inhibition at 62.5 µg/mL ([2]; 62.50 μg/mL, read-out: 5-LOX percent inhibition): 44.8%; 5-LOX percent inhibition ([2]; 125 μg/mL): 52%; inhibition at 125 µg/mL ([2]; 125 μg/mL, read-out: 5-LOX percent inhibition): 51.9%; 5-LOX percent inhibition ([2]; 250 μg/mL): 60%; inhibition at 250 µg/mL ([2]; 250 μg/mL, read-out: 5-LOX percent inhibition): 60.2%; 5-LOX percent inhibition ([2]; 500 μg/mL): 70%; inhibition at 500 µg/mL ([2]; 500 μg/mL, read-out: 5-LOX percent inhibition): 69.9%; 5-LOX percent inhibition ([2]; 1000 μg/mL): 79%; inhibition at 1000 µg/mL ([2]; 1000 μg/mL, read-out: 5-LOX percent inhibition): 79.4%; Solubility in organic solvents [3]: soluble in polar organic solvents
